Laboratory results published in patent publication US10023570B2 (Array BioPharma, Inc., priority 2015, dated 2018).
Counter-ions that a name gives are not always drawn. Like-named read-outs stand apart in the source and are kept apart here.

Legend:
[1] = molecular target: human KDR protein in HEK-293 cells (Homo sapiens (Human), UniProt P35968); experiment: KDR Cell Assay (phospho-KDR in HEK-293 cells expressing inducible KDR); type: cell-based; conditions: pKDR Cell HEK 10% FBS IC50, HEK-293 cells expressing inducible KDR, VEGF stimulated
human KDR protein in HEK-293 cells, sequence (P35968 20-1356): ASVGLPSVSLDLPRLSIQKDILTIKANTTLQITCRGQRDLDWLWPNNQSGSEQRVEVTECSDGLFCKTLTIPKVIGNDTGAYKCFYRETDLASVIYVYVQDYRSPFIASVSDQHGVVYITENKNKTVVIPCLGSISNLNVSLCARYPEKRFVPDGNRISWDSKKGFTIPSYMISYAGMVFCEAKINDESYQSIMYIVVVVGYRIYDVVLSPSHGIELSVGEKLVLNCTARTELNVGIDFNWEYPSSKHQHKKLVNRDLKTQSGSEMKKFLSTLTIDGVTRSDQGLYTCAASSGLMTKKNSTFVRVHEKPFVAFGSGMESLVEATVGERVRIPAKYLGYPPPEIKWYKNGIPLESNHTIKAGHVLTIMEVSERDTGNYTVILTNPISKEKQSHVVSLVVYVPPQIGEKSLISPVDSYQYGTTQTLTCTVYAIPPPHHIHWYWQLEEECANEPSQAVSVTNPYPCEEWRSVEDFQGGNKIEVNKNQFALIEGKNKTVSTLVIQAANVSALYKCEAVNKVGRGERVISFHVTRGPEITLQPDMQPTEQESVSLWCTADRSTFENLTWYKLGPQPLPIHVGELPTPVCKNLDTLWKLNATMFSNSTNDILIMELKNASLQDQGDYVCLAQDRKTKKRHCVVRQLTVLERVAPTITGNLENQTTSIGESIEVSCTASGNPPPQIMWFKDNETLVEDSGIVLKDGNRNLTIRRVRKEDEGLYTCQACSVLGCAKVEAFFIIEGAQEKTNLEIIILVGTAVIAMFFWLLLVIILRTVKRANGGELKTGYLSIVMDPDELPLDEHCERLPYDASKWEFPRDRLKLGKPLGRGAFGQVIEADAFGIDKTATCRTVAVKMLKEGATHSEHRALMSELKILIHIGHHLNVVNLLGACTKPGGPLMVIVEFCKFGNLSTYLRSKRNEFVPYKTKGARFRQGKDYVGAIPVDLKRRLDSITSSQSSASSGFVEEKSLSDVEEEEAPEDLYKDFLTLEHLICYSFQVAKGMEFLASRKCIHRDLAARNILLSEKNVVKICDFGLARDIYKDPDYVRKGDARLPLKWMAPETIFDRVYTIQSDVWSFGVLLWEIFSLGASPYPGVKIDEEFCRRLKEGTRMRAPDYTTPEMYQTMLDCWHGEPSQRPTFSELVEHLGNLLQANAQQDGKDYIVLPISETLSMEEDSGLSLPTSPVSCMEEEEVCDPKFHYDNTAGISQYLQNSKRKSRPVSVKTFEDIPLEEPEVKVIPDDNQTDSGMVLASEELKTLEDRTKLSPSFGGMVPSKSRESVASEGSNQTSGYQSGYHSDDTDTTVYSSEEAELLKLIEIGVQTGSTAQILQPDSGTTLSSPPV
Procedure, shortened: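 HEK-293 cells with inducible human KDR were treated with compound for 1 h in DMEM (0.25% DMSO final), then lysed. Phospho-KDR was quantified by Meso Scale immunoassay, expressed as percent of control, and IC50 taken where a 4-parameter logistic fit crossed 50 POC.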

[2] = molecular target: Kif5b-RET fusion protein in HEK-293 cells (Homo sapiens, UniProt P07949); experiment: cell-based
Kif5b-RET fusion protein in HEK-293 cells, sequence (P07949 29-1114 limits assumed): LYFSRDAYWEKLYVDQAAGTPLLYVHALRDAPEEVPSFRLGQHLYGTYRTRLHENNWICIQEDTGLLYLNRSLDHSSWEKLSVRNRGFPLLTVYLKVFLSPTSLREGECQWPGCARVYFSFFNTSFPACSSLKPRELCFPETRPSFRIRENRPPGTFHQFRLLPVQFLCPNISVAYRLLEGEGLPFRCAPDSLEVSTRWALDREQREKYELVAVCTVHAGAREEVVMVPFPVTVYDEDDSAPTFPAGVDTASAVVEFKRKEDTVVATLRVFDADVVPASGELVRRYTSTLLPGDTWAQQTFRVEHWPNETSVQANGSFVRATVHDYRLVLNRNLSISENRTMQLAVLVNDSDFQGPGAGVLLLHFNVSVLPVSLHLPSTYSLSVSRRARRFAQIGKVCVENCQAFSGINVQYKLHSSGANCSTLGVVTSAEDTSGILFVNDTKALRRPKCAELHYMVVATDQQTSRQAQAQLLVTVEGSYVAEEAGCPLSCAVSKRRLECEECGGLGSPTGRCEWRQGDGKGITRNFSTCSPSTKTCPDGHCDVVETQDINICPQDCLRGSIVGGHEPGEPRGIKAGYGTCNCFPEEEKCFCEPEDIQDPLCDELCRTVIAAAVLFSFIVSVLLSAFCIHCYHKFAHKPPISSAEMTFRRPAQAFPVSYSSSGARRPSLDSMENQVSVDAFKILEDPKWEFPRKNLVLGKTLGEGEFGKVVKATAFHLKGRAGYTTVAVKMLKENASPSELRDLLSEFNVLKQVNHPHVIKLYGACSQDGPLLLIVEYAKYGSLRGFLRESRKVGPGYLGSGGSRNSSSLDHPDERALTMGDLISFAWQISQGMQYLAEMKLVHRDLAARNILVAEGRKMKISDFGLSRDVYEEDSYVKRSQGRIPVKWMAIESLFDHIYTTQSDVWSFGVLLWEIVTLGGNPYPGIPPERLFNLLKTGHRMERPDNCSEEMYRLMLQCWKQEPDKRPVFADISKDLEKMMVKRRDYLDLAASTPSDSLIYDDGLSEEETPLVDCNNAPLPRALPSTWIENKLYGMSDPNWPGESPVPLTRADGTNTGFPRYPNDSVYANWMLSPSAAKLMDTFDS

[3] = molecular target: N-terminal GST tagged recombinant human RET cytoplasmic domain (aa 658-end), wild type RET kinase (Homo sapiens (Human), UniProt P07949); experiment: RET Enzyme Assay (HTRF KinEASE-TK), wild type RET; type: biochemical
N-terminal GST tagged recombinant human RET cytoplasmic domain (aa 658-end), wild type RET kinase, sequence (P07949 658-1114): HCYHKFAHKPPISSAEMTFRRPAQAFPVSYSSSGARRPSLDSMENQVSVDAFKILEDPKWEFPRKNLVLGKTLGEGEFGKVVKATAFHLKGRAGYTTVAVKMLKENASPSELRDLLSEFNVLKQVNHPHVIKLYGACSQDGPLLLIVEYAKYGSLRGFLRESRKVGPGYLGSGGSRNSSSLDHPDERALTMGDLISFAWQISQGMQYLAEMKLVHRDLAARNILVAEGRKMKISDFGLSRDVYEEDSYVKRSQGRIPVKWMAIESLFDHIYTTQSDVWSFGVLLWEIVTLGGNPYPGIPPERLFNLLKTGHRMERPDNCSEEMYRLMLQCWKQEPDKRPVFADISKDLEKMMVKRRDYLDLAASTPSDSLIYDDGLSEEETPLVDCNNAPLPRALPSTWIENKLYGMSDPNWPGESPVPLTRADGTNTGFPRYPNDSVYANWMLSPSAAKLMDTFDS

[4] = HEK-293 cells expressing Kif5b-RET, phospho-RET(Tyr1062), read-out: KIF5B-RET pTYR1062 Cell IC50
[5] = HEK-293 cells expressing Kif5b-RET, read-out: KIF5B-RET pTYR1062 Cell IC50

Row | Compound | IC50 [1] [nM] | IC50 [2] [nM] | IC50 ([3]; wild type RET, 1 mM ATP) [nM] | IC50 ([1]; 10% FBS) [nM] | IC50 [2, 4] [nM] | IC50 [2, 5] [nM] | IC50 [3] [nM]
1 | Cc1nn(C(C)C)cc1-c1cc(-c2ccc(N3CCN(Cc4ccccc4)CC3)nc2)c2c(C#N)cnn2c1 [Example 614, 4-(6-(4-benzylpiperazin-1-yl)pyridin-3-yl)-6-(1-isopropyl-3-methyl-1H-pyrazol-4-yl)pyrazolo[1,5-a]pyridine-3-carbonitrile] | 2300 | 17 | 22.2 | – | – | – | –
2 | CC(C)COC1CCN(c2ccc(-c3cc(-c4cnn(C)c4)cn4ncc(C#N)c34)cn2)CC1 [Example 197, 4-(6-(4-isobutoxypiperidin-1-yl)pyridin-3-yl)-6-(1-methyl-1H-pyrazol-4-yl)pyrazolo[1,5-a]pyridine-3-carbonitrile] | – | – | 14 | 1300 | 39.6 | – | –
3 | COc1ncccc1CN1CCN(c2ccc(-c3cc(-c4cnn(C)c4)cn4ncc(C#N)c34)cn2)CC1 [Example 452, 4-(6-(4-((2-methoxypyridin-3-yl)methyl)piperazin-1-yl)pyridin-3-yl)-6-(1-methyl-1H-pyrazol-4-yl)pyrazolo[1,5-a]pyridine-3-carbonitrile] | 844 | – | 10 | – | – | 12.1 | –
4 | CC(C)OCCNC(=O)C1CCN(c2ccc(-c3cc(-c4cnn(C)c4)cn4ncc(C#N)c34)cn2)CC1 [Example 234, 1-(5-(3-cyano-6-(1-methyl-1H-pyrazol-4-yl)pyrazolo[1,5-a]pyridin-4-yl)pyridin-2-yl)-N-(2-isopropoxyethyl) piperidine-4-carboxamide] | – | – | 25.6 | 1210 | 31.9 | – | –
5 | Cn1cc(-c2cc(-c3ccc(N4CCN(C(=O)CC(C)(C)C)CC4)nc3)c3c(C#N)cnn3c2)cn1 [Example 65, 4-(6-(4-(3,3-dimethylbutanoyl)piperazin-1-yl)pyridin-3-yl)-6-(1-methyl-1H-pyrazol-4-yl)pyrazolo[1,5-a]pyridine-3-carbonitrile] | – | – | 8.2 | 902 | 39.3 | – | –
6 | CC(C)C(=O)N1CCN(c2ccc(-c3cc(-c4cnn(C)c4)cn4ncc(C#N)c34)cn2)CC1 [Example 66, 4-(6-(4-isobutyrylpiperazin-1-yl)pyridin-3-yl)-6-(1-methyl-1H-pyrazol-4-yl)pyrazolo[1,5-a]pyridine-3-carbonitrile] | – | – | 14.1 | 911 | 25.4 | – | –
7 | Cn1cc(-c2cc(-c3ccc(N4CCC(C)(N)CC4)nc3)c3c(C#N)cnn3c2)cn1 [Example 202, 4-(6-(4-amino-4-methylpiperidin-1-yl)pyridin-3-yl)-6-(1-methyl-1H-pyrazol-4-yl)pyrazolo[1,5-a]pyridine-3-carbonitrile dihydrochloride] | – | – | – | 992 | 110 | – | 41.7
8 | C[C@@H](O)C(=O)NC1CCN(c2ccc(-c3cc(-c4cnn(C)c4)cn4ncc(C#N)c34)cn2)CC1 [Example 181, (R)-N-(1-(5-(3-cyano-6-(1-methyl-1H-pyrazol-4-yl)pyrazolo[1,5-a]pyridin-4-yl)pyridin-2-yl)piperidin-4-yl)-2-hydroxypropanamide] | – | – | 10.5 | 1200 | 109 | – | –
9 | Cn1cc(-c2cc(-c3ccc(N4CCN(S(=O)(=O)NC(C)(C)C)CC4)nc3)c3c(C#N)cnn3c2)cn1 [Example 137, N-(tert-butyl)-4-(5-(3-cyano-6-(1-methyl-1H-pyrazol-4-yl)pyrazolo[1,5-a]pyridin-4-yl)pyridin-2-yl)piperazine-1-sulfonamide] | – | – | 8.3 | 71.3 | 5.2 | – | –
10 | C[C@@H](CO)Cn1cc(-c2cc(-c3ccc(N4CCN(Cc5ccccc5)CC4)nc3)c3c(C#N)cnn3c2)cn1 [Example 592, (R)-4-(6-(4-benzylpiperazin-1-yl)pyridin-3-yl)-6-(1-(3-hydroxy-2-methylpropyl)-1H-pyrazol-4-yl)pyrazolo[1,5-a]pyridine-3-carbonitrile] | 283 | – | 16.1 | – | – | 17.4 | –
11 | Cn1cc(-c2cc(-c3ccc(N4CCC(C(=O)NOC(C)(C)C)CC4)nc3)c3c(C#N)cnn3c2)cn1 [Example 565, N-(tert-butoxy)-1-(5-(3-cyano-6-(1-methyl-1H-pyrazol-4-yl)pyrazolo[1,5-a]pyridin-4-yl)pyridin-2-yl)piperidine-4-carboxamide] | 540 | – | 6.4 | – | – | 10.3 | –
12 | CC(C)NC(=O)C1CCN(c2ccc(-c3cc(-c4cnn(C)c4)cn4ncc(C#N)c34)cn2)CC1 [Example 246, 1-(5-(3-cyano-6-(1-methyl-1H-pyrazol-4-yl)pyrazolo[1,5-a]pyridin-4-yl)pyridin-2-yl)-N-isopropylpiperidine-4-carboxamide] | – | – | 12 | 949 | 13.6 | – | –
13 | CC(C)OC(=O)NC1CCN(c2ccc(-c3cc(-c4cnn(C)c4)cn4ncc(C#N)c34)cn2)CC1 [Example 188, Isopropyl (1-(5-(3-cyano-6-(1-methyl-1H-pyrazol-4-yl)pyrazolo[1,5-a]pyridin-4-yl)pyridin-2-yl)piperidin-4-yl)carbamate] | – | – | 16.8 | 614 | 9.7 | – | –
14 | C[C@@H](O)CC(=O)N1CCN(c2ccc(-c3cc(-c4cnn(C)c4)cn4ncc(C#N)c34)cn2)CC1 [Example 55, (R)-4-(6-(4-(3-hydroxybutanoyl)piperazin-1-yl)pyridin-3-yl)-6-(1-methyl-1H-pyrazol-4-yl)pyrazolo[1,5-a]pyridine-3-carbonitrile] | – | – | 10.4 | 923 | 54.9 | – | –
15 | CC(C)NS(=O)(=O)C1CCN(c2ccc(-c3cc(-c4cnn(C)c4)cn4ncc(C#N)c34)cn2)CC1 [Example 569, 1-(5-(3-cyano-6-(1-methyl-1H-pyrazol-4-yl)pyrazolo[1,5-a]pyridin-4-yl)pyridin-2-yl)-N-isopropylpiperidine-4-sulfonamide] | 2.2 | – | 6.2 | – | – | 2.8 | –
16 | N#Cc1cnn2cc(-c3cn[nH]c3)cc(-c3ccc(N4CCN(Cc5ccccc5)CC4)nc3)c12 [Example 591, 4-(6-(4-benzylpiperazin-1-yl)pyridin-3-yl)-6-(1H-pyrazol-4-yl)pyrazolo[1,5-a]pyridine-3-carbonitrile] | 1490 | – | 5.7 | – | – | 4.1 | –
17 | CCC1(C(=O)N[C@H](C)C(F)(F)F)CCN(c2ccc(-c3cc(-c4cnn(C)c4)cn4ncc(C#N)c34)cn2)CC1 [Example 257, (R)-1-(5-(3-cyano-6-(1-methyl-1H-pyrazol-4-yl)pyrazolo[1,5-a]pyridin-4-yl)pyridin-2-yl)-4-ethyl-N-(1,1,1-trifluoropropan-2-yl)piperidine-4-carboxamide] | – | – | 14.9 | 1350 | 9.3 | – | –
18 | CCc1nn(C)cc1-c1cc(-c2ccc(N3CCN(Cc4ccccc4)CC3)nc2)c2c(C#N)cnn2c1 [Example 610, 4-(6-(4-benzylpiperazin-1-yl)pyridin-3-yl)-6-(3-ethyl-1-methyl-1H-pyrazol-4-yl)pyrazolo[1,5-a]pyridine-3-carbonitrile] | 4440 | – | 48.1 | – | – | 109 | –
19 | CC(C)C(O)CN1CCN(c2ccc(-c3cc(-c4cnn(C)c4)cn4ncc(C#N)c34)cn2)CC1 (stereo not drawn) [Example 160, 4-(6-(4-(2-hydroxy-3-methylbutyl)piperazin-1-yl)pyridin-3-yl)-6-(1-methyl-1H-pyrazol-4-yl)pyrazolo[1,5-a]pyridine-3-carbonitrile] | – | – | 13.6 | 192 | 11 | – | –
